The text below walks through data of patent US20210246109A1, “POTENT AND SELECTIVE INHIBITORS OF CYTOCHROME P450” (University of Kentucky Research Foundation, priority 2020, published 2021).

Like-named read-outs stand apart in the source and are kept apart here.

The target in one series is T1, CYP1B1 (Homo sapiens, UniProt Q16678).
T1 construct: expressed in transfected cells
T1 sequence (Q16678 1-543): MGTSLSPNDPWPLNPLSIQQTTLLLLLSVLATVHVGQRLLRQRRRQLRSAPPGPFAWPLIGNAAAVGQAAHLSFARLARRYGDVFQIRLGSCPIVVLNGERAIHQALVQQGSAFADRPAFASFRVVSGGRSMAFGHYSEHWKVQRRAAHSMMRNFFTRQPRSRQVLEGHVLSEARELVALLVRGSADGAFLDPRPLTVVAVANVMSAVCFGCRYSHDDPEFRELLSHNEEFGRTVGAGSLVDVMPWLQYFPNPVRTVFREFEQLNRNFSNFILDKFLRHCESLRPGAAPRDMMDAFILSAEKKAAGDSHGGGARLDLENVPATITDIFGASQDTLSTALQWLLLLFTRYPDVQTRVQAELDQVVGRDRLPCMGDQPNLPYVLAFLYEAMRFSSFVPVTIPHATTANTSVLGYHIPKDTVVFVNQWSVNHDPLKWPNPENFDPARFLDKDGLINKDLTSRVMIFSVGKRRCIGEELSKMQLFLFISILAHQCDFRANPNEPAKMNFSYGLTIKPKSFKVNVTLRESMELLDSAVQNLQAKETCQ
The series can be described thus: EROD assay in inducible CYP1B1 cell line. It is filed as cell-based. How it is done: (§1) The activity of the inhibitors was assessed in a novel cell based assay generated for the purpose of this project. Enzymatic turnover of CYP1B1 was measured using the ethoxy-resorufin-O-deethylase (EROD) assay with the fluorescent substrate, resorufin ethyl ether. Cell lines were generated where the gene for CYP1B1 alone or CYP1B1 and cytochrome P450 reductase (CPR) were both under the control of an inducible promoter. A cell line was generated for counter screening where the gene for CYP1A1 was used. CYP1A1 is the closest family member to CYP1B1.

For a further series, the target named is T2, CYP1A1 (Homo sapiens, UniProt P04798).
T2 construct: expressed in transfected cells
T2 sequence (P04798 1-512): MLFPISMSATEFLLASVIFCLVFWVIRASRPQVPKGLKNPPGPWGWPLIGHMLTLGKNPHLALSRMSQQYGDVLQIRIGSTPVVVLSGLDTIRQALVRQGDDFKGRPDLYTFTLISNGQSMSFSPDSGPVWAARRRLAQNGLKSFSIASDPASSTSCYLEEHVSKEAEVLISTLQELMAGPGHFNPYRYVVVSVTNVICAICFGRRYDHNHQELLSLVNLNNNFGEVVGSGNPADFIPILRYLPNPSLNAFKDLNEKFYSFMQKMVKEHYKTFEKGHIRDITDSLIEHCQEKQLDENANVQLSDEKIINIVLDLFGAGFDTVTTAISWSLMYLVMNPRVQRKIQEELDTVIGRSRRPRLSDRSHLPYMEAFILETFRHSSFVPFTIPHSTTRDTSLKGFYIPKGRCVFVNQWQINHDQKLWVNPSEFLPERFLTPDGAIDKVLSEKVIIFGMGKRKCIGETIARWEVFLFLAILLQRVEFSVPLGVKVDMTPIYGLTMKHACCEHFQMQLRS
The series can be described thus: EROD assay in CYP1A1 counter-screen cell line. The format is cell-based. The conditions noted are these: for SI 1B1:1A1: selectivity index. As to the method:
as §1
(Counterscreens check selectivity or assay interference.)

Setting [1] is: Table 2, EROD assay, read-out: IC50 CYP1B1.
Where [2] appears, read: Table 2, EROD assay, read-out: IC50 CYP1A1.

On to `COc1ccc(/C=C/c2ccccc2)c(OC)c1` [Compound 1], for which, on CYP1B1, the “activity as CYP1B1 inhibitor, in words” value is recorded as “poor activity”.
Regarding `COc1ccc(/C=C/c2ccncc2)c(OC)c1` [Compound 6], the “activity as CYP1B1 inhibitor, in words” value on CYP1B1 was “potent”.
Still for that read-out and setting: with `COc1ccc(/C=C/c2cc[n+](C)cn2)c(OC)c1` [Compound 7] the entry was “poor activity”.
Same read-out and setting: for `N#CCOc1ccc(/C=C/c2ccncn2)cc1` [Compound 13] the value was “potent”.
One may read the IC50 as the midpoint of a concentration-inhibition curve. Consider `O=c1[nH]c(-c2ccccn2)nc2ccccc12` [GL518], for which the IC50 on CYP1B1 (Table 3, read-out: IC50 1B1) came out at 2440 nM.
On to `N#CCOc1ccc(/C=N/c2ccccc2C(N)=O)cc1` [GL542], for which the IC50 on CYP1B1 (Table 3, read-out: IC50 1B1) was 51 nM; on CYP1A1 (Table 3, read-out: IC50 1A1) it was over 10000 nM.
As to `N#CCOc1ccc(-c2nc3ccccc3c(=O)[nH]2)c(OCC#N)c1` [GL545], the IC50 at CYP1A1 (Table 3, read-out: IC50 1A1) came out at 4400 nM.
Regarding `N#CCOc1ccc(-c2nc3ccccc3c(=O)[nH]2)cc1OCC#N` [GL546], the IC50 on CYP1B1 (Table 3, read-out: IC50 1B1) stood at 20.4 nM; at CYP1A1 (Table 3, read-out: IC50 1A1), 3500 nM.
The matching figures for `COc1cc(-c2nc3ccc(C#Cc4ccccc4)cc3c(=O)[nH]2)ccc1OCC#N` [GL552]: 1.8 nM and over 10000 nM.
Take `COc1ccc(-c2nc3ccccc3c(=O)[nH]2)cc1` [GL553]: the IC50 is 3.8 nM at CYP1B1 (Table 3, read-out: IC50 1B1) and 4760 nM at CYP1A1 (Table 3, read-out: IC50 1A1).
The matching figures for `COc1ccc(-c2nc(OCC#N)c3ccccc3n2)cc1` [GL554]: 3.5 nM and 3330 nM.
The matching figures for `COc1ccc(-c2nc(OC)c3ccccc3n2)cc1` [GL556]: 6.7 nM and 2590 nM.
For the compound `COc1cc(-c2nc(OCC#N)c3ccccc3n2)ccc1OCC#N` [GL557], the IC50 at CYP1B1 (Table 3, read-out: IC50 1B1) is under 0.7 nM; on CYP1A1 (Table 3, read-out: IC50 1A1) it was 1720 nM.
In the case of `COc1nc(-c2ccc(OCC#N)cc2)nc2ccccc12` [GL558], the IC50 at CYP1B1 (Table 3, read-out: IC50 1B1) was under 0.7 nM; on CYP1A1 (Table 3, read-out: IC50 1A1), 2460 nM.
`O=C(NCCCOc1ccc(CCc2ccncn2)cc1)OCCOCCOCCOC(=O)NC12CC3CC(CC(C3)C1)C2` [GL594]: the IC50 on CYP1B1 (Table 3, read-out: IC50 1B1) turned out to be 9400 nM; at CYP1A1 (Table 3, read-out: IC50 1A1), 1100 nM.
For the compound `[N-]=[N+]=NCCCOc1ccc(-c2nc3ccccc3c(=O)[nH]2)cc1` [GL627], the IC50 on CYP1B1 (Table 3, read-out: IC50 1B1) turned out to be 6.1 nM.
On the same count and under the same terms, with `N#CCOc1nc(-c2ccc(OCCCN=[N+]=[N-])cc2)nc2ccccc12` [GL628] the figure was 126 nM.
For `N#CCOc1ccc(-c2nc(-c3cccnc3)cs2)cc1` [GL641], the values for the IC50 on CYP1B1 (setting [1]) and on CYP1A1 (setting [2]) were 0.381 nM and 2610 nM, respectively. Besides, the “SI 1B1:1A1” value on CYP1A1 worked out at 6833.
As to `O=c1[nH]c(-c2ccc(Cl)cc2)nc2ccccc12` [GL642], the IC50 on CYP1B1 (Table 3, read-out: IC50 1B1) turned out to be 22 nM; at CYP1A1 (Table 3, read-out: IC50 1A1), 85 nM.
The matching figures for `N#CCOc1nc(-c2ccc(Cl)cc2)nc2ccccc12` [GL643]: 0.1 nM and 125 nM.
For the compound `N#Cc1ccc(-c2csc(-c3ccc(O)cc3)n2)cc1` [GL649], the IC50 is 931 nM on CYP1B1 (setting [1]) and 16400 nM at CYP1A1 (setting [2]). Moreover, on CYP1A1, the “SI 1B1:1A1” value was 17.6.
For `O=c1[nH]c(-c2ccc3ccccc3n2)nc2ccccc12` [GL651], the IC50 at CYP1B1 (Table 3, read-out: IC50 1B1) amounted to 2.8 nM; on CYP1A1 (Table 3, read-out: IC50 1A1) it was 1100 nM.
As to `N#CCOc1ccc(/C=C/c2ccc(COC#N)cc2COC#N)cc1` [GL652], the IC50 on CYP1B1 (Table 3, read-out: IC50 1B1) came to 19 nM; at CYP1A1 (Table 3, read-out: IC50 1A1) it was 1860 nM.
In the case of `N#Cc1ccc(-c2csc(-c3cccnc3)n2)cc1` [GL656], the IC50 at CYP1B1 (setting [1]) worked out at 391 nM.
Regarding `Cn1c(-c2ccc3ccccc3n2)nc2ccccc2c1=O` [GL659], the IC50 is over 1000 nM at CYP1B1 (Table 3, read-out: IC50 1B1) and over 10000 nM on CYP1A1 (Table 3, read-out: IC50 1A1).
As to `COc1ccc(-c2nc(-c3ccc(O)cc3)cs2)c(OC)c1` [GL673], the IC50 at CYP1B1 (setting [1]) is 101 nM.
With `N#CCOc1nc(-c2ccc(F)c(C(F)(F)F)c2)nc2ccccc12` [GL-701], on CYP1A1 (Table 3, read-out: IC50 1A1), the IC50 stood at 250 nM.
As to `O=c1[nH]c(-c2cccc(C(F)(F)F)c2)nc2ccccc12` [GL-728], at CYP1B1 (Table 3, read-out: IC50 1B1), the IC50 was found to be 200 nM.
On to `N#CCOc1nc(-c2cccc(C(F)(F)F)c2)nc2ccccc12` [GL-729], for which the IC50 at CYP1A1 (Table 3, read-out: IC50 1A1) was determined as 50 nM.
Same read-out and setting: for `N#CCOc1ccc(-c2nc(OCC#N)c3ccccc3n2)cc1` [GL- 561] the value was 3600 nM.
